Calls of active or inactive are those of the source. The calls are words filed in the database; no cut-off is given here.
Tests used:
[1] = target: Casein kinase II subunit alpha (Homo sapiens, UniProt P68400); assay: Displacement of 5-TAMRA-labeled ARC-1530 from CK2alpha (unknown origin) (1 to 335 residues) after 15 to 60 mins by luminescence assay
[2] = target: Dual specificity tyrosine-phosphorylation-regulated kinase 1A (Homo sapiens) (UniProt Q13627); assay: Inhibition of human DYRK1alpha assessed as enzyme residual activity at 100 nM by radiometric filter binding assay relative to control
[3] = target: Mitogen-activated protein kinase kinase kinase 7 (Homo sapiens) (UniProt O43318); assay: Inhibition of human TAK1 assessed as enzyme residual activity at 100 nM by radiometric filter binding assay relative to control
[4] = target: SRSF protein kinase 1 (Homo sapiens) (UniProt Q96SB4); assay: Inhibition of human SRPK1 assessed as enzyme residual activity at 100 nM by radiometric filter binding assay relative to control
[5] = target: Serine/threonine-protein kinase TBK1 (Homo sapiens) (UniProt Q9UHD2); assay: Inhibition of human TBK1 assessed as enzyme residual activity at 100 nM by radiometric filter binding assay relative to control
[6] = target: Tyrosine-protein kinase JAK3 (Homo sapiens) (UniProt P52333); assay: Inhibition of human JAK3 assessed as enzyme residual activity at 100 nM by radiometric filter binding assay relative to control
[7] = target: Mitogen-activated protein kinase 8 (Homo sapiens) (UniProt P45983); assay: Inhibition of human JNK1 assessed as enzyme residual activity at 100 nM by radiometric filter binding assay relative to control
[8] = target: Vascular endothelial growth factor receptor 1 (Homo sapiens) (UniProt P17948); assay: Inhibition of human VEGFR1 assessed as enzyme residual activity at 100 nM by radiometric filter binding assay relative to control
[9] = target: High affinity nerve growth factor receptor (Homo sapiens) (UniProt P04629); assay: Inhibition of human TRKA assessed as enzyme residual activity at 100 nM by radiometric filter binding assay relative to control
Homo sapiens = species: Homo sapiens; assay: Inhibition of human PKA assessed as enzyme residual activity at 100 nM by radiometric filter binding assay relative to control
[10] = target: Serine/threonine-protein kinase Sgk1 (Homo sapiens) (UniProt O00141); assay: Inhibition of human SGK1 assessed as enzyme residual activity at 100 nM by radiometric filter binding assay relative to control
[11] = target: Tyrosine-protein kinase BTK (Homo sapiens) (UniProt Q06187); assay: Inhibition of human BTK assessed as enzyme residual activity at 100 nM by radiometric filter binding assay relative to control
[12] = target: Proto-oncogene tyrosine-protein kinase LCK (Mus musculus) (UniProt P06240); assay: Inhibition of mouse Lck assessed as enzyme residual activity at 100 nM by radiometric filter binding assay relative to control
[13] = target: Ribosomal protein S6 kinase alpha-1 (Homo sapiens) (UniProt Q15418); assay: Inhibition of human RSK1 assessed as enzyme residual activity at 100 nM by radiometric filter binding assay relative to control
[14] = target: Mitogen-activated protein kinase 14 (Homo sapiens) (UniProt Q16539); assay: Inhibition of human p38alpha MAPK assessed as enzyme residual activity at 100 nM by radiometric filter binding assay relative to control
[15] = target: Ribosomal protein S6 kinase beta-1 (Homo sapiens) (UniProt P23443); assay: Inhibition of human S6K1 assessed as enzyme residual activity at 100 nM by radiometric filter binding assay relative to control
[16] = target: RAC-alpha serine/threonine-protein kinase (Homo sapiens) (UniProt P31749); assay: Inhibition of human PKBa assessed as enzyme residual activity at 100 nM by radiometric filter binding assay relative to control
[17] = target: Ephrin type-A receptor 2 (Homo sapiens) (UniProt P29317); assay: Inhibition of human EPHA2 assessed as enzyme residual activity at 100 nM by radiometric filter binding assay relative to control
[18] = target: Serine/threonine-protein kinase STK11 (Homo sapiens) (UniProt Q15831); assay: Inhibition of human LKB1 assessed as enzyme residual activity at 100 nM by radiometric filter binding assay relative to control
[19] = target: 3-phosphoinositide-dependent protein kinase 1 (Homo sapiens) (UniProt O15530); assay: Inhibition of human PDK1 assessed as enzyme residual activity at 100 nM by radiometric filter binding assay relative to control
[20] = target: Tyrosine-protein kinase SYK (Homo sapiens) (UniProt P43405); assay: Inhibition of human SYK assessed as enzyme residual activity at 100 nM by radiometric filter binding assay relative to control

Chain of Serine/threonine-protein kinase STK11 (Homo sapiens) (Q15831 whole entry): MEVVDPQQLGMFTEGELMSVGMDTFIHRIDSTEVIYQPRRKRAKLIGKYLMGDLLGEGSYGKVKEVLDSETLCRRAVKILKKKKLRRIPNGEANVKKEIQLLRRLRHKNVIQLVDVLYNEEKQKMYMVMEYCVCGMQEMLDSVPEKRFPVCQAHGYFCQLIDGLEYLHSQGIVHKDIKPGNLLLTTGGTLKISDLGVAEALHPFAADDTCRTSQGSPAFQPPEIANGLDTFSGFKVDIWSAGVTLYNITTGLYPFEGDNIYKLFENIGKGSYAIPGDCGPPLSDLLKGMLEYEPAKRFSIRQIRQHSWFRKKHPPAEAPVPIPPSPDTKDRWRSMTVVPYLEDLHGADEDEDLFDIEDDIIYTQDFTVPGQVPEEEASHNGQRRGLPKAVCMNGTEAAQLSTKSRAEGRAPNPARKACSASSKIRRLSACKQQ
Chain of Mitogen-activated protein kinase 14 (Homo sapiens) (Q16539 whole entry): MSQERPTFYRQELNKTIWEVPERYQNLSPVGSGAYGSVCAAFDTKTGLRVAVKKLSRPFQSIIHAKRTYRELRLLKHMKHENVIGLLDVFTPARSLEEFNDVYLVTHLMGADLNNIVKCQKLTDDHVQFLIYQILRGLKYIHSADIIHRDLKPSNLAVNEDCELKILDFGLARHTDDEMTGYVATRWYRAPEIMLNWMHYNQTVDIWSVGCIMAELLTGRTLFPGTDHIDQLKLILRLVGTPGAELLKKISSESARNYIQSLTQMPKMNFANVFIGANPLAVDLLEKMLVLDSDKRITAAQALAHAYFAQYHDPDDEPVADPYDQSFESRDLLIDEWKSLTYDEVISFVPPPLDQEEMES
Chain of Serine/threonine-protein kinase TBK1 (Homo sapiens) (Q9UHD2 whole entry): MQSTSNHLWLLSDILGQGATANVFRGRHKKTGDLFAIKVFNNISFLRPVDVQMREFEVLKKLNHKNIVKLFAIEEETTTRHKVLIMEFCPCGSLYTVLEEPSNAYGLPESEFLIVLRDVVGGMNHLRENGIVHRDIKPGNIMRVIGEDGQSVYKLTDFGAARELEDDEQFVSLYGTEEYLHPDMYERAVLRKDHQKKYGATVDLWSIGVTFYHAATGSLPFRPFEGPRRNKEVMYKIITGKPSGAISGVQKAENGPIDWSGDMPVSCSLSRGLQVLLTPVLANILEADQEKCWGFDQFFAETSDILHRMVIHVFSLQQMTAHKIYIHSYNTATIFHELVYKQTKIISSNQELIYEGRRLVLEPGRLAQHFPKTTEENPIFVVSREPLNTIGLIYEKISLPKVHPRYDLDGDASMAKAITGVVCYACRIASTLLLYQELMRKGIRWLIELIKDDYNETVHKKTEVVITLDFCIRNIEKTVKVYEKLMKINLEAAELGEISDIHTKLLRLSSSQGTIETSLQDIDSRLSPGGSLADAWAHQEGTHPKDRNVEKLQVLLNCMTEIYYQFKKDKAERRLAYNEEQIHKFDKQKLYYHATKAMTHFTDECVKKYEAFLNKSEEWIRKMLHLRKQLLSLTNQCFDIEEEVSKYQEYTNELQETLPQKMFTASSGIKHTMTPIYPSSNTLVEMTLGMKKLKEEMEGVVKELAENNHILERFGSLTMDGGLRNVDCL
Chain of High affinity nerve growth factor receptor (Homo sapiens) (P04629 33-796 limits assumed): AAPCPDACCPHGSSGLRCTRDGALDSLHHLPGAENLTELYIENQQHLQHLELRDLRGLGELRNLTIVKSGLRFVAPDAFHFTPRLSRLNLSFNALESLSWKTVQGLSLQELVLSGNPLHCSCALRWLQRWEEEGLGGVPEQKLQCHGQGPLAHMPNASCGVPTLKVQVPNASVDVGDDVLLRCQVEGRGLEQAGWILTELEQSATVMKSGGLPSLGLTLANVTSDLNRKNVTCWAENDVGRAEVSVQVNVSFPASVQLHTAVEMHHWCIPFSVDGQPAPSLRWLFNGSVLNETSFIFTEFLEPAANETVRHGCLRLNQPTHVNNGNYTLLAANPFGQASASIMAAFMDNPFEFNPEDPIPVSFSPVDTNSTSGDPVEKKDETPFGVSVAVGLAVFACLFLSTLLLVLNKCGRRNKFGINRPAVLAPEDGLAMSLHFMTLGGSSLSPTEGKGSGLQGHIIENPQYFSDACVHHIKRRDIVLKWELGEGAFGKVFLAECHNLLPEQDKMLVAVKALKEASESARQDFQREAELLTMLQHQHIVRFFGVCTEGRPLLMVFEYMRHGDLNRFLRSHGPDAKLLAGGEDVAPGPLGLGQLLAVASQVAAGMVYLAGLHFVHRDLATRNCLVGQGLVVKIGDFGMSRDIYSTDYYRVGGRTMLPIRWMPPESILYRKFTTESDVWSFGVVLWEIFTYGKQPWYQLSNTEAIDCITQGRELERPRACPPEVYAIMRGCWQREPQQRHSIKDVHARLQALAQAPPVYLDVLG
Chain of Ephrin type-A receptor 2 (Homo sapiens) (P29317 whole entry): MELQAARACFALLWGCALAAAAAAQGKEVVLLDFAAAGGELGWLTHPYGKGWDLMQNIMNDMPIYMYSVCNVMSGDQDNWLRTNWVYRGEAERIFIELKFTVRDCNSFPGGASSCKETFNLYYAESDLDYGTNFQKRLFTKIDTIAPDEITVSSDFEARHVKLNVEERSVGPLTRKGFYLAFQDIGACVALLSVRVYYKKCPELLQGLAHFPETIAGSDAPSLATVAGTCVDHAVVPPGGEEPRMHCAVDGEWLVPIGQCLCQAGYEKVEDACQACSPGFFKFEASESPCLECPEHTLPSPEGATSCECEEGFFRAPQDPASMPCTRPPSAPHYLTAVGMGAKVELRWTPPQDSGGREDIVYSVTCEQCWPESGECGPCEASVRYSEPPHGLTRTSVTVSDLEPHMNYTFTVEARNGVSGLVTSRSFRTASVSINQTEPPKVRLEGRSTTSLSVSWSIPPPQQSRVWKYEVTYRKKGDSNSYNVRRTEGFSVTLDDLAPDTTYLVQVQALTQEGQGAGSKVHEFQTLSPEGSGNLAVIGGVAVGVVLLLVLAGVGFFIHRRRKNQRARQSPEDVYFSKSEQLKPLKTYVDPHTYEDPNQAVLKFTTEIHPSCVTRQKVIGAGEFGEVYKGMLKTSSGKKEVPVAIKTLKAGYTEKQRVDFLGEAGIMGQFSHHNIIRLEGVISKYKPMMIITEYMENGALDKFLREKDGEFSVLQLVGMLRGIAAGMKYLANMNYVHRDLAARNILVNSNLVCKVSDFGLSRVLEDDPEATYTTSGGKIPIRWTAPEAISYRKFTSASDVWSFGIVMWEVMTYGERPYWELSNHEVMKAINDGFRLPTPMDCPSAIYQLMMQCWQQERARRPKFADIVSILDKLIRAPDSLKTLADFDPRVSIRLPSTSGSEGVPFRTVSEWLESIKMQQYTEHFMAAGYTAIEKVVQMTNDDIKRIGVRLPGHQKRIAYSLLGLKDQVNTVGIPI
Chain of Ribosomal protein S6 kinase alpha-1 (Homo sapiens) (Q15418 whole entry): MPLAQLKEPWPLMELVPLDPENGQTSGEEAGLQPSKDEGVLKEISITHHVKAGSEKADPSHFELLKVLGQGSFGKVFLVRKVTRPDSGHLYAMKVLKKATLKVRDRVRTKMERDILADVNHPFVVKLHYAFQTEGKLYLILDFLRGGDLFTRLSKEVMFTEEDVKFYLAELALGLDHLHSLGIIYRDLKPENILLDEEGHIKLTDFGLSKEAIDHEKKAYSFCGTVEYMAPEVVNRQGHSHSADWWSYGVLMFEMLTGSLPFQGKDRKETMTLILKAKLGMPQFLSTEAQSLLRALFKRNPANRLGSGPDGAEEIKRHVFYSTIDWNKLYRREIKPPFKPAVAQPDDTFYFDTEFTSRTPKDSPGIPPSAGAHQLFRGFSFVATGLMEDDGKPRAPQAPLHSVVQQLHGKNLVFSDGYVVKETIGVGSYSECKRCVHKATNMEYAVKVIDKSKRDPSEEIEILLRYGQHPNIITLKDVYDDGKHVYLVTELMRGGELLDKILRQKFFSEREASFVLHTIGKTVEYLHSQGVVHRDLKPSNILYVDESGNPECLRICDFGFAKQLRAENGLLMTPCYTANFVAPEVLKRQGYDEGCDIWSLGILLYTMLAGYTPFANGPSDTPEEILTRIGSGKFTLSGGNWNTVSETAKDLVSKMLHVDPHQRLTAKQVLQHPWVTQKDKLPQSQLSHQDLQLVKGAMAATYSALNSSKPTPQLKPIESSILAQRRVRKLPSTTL
Chain of Ribosomal protein S6 kinase beta-1 (Homo sapiens) (P23443 whole entry, looked up): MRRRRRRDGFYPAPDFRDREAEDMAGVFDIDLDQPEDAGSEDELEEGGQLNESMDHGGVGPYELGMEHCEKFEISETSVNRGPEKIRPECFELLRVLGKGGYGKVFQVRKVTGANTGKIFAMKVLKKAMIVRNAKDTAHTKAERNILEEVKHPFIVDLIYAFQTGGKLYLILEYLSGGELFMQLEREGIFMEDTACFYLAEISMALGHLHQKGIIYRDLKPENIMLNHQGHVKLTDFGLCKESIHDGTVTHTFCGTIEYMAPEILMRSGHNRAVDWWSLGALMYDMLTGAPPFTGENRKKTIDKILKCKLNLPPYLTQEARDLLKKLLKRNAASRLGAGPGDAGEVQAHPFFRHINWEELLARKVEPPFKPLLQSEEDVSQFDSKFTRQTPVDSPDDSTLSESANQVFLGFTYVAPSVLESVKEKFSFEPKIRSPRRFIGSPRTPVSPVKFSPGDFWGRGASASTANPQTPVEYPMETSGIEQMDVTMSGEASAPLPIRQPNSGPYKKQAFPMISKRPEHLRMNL
Chain of Casein kinase II subunit alpha (P68400 whole entry, looked up, the tested form may be a part): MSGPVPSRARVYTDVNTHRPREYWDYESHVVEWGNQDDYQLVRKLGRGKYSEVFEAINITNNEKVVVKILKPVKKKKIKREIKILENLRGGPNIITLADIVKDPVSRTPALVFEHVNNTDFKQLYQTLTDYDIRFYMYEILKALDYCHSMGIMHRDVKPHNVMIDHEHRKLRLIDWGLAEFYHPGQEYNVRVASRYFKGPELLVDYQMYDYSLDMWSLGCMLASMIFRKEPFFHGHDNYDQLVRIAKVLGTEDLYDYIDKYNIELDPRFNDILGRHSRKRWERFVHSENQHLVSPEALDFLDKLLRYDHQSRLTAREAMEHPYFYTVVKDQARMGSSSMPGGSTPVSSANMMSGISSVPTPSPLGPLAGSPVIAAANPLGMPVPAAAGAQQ

Activity [1]: Active
Activity [2]: 11.5%
Activity [3]: 62%
Activity [4]: 69%
Activity [5]: 78%
Activity [6]: 85%
Activity [7]: 86%
Activity [8]: 87%
Activity [9]: 88%
Activity (Homo sapiens): 92%
Activity [10]: 97%
Activity [11]: 99%
Activity [12]: 101%
Activity [13]: 101%
Activity [14]: 102%
Activity [15]: 104%
Activity [16]: 105%
Activity [17]: 107%
Activity [18]: 107%
Activity [19]: 111%
Activity [20]: 122%
SMILES: NCCCC[C@@H](NC(=O)[C@@H](CC(=O)O)NC(=O)[C@@H](CC(=O)O)NC(=O)[C@@H](CC(=O)O)NC(=O)[C@@H](CC(=O)O)NC(=O)[C@@H](CC(=O)O)NC(=O)[C@@H](CC(=O)O)NC(=O)CCCCCNC(=O)CCC(=O)Nc1ncc(-c2ccc(C(=O)O)cc2)s1)C(=O)O
